{"source": "patent US7427637B2", "about": "“Mitotic kinesin inhibitors” (Merck & Co. Inc., priority 2003, dated 2008)", "target": "T1, human KSP motor domain (KSP(367H)) (Homo sapiens, UniProt P52732)", "T1 construct": "were used to amplify the motor domain and the neck linker region; made in house; host or cells: E. coli BL21 (DE3), pRSETa", "T1 sequence (P52732 18-359 limits assumed)": "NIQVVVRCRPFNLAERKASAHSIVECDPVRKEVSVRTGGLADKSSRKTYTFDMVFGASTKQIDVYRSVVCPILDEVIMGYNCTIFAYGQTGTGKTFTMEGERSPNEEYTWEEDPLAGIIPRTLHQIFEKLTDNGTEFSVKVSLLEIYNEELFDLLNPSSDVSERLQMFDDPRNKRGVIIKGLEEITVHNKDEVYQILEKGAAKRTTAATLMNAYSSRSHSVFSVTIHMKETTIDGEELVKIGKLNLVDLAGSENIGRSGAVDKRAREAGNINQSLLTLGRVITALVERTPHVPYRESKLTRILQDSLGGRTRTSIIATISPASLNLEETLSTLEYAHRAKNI", "experiment": "Kinesin ATPase in vitro assay", "format": "biochemical", "settings": "kinesin motor domain with microtubules, 1 mM ATP, 23° C.; free phosphate by quinaldine red/ammonium molybdate, absorbance 540 nm", "text": "I. Kinesin ATPase In Vitro Assay\nCloning and Expression of Human Poly-histidine Tagged KSP Motor Domain_(KSP(367H))\nPlasmids for the expression of the human KSP motor domain construct were cloned by PCR using a pBluescript full length human KSP construct (Blangy et al., Cell, vol. 83, pp 1159-1169, 1995) as a template. The N-terminal primer 5′-[…] (SEQ. ID. NO.: 1) and the C-terminal primer 5′-[…] […] (SEQ. ID. NO.: 2) were used to amplify the motor domain and the neck linker region. The PCR products were digested with AseI and XhoI, ligated into the NdeI/XhoI digestion product of pRSETa (Invitrogen) and transformed into E. coli BL21 (DE3).\nCells were grown at 37° C. to an OD600 of 0.5. After cooling the culture to room temperature expression of KSP was induced with 100 μM IPTG and incubation was continued overnight. Cells were pelleted by centrifugation and washed once with ice-cold PBS. Pellets were flash-frozen and stored −80° C.\nCell pellets were thawed on ice and resuspended in lysis buffer (50 mM K-HEPES, pH 8.0, 250 mM KCl, 0.1% Tween, 10 mM imidazole, 0.5 mM Mg-ATP, 1 mM PMSF, 2 mM benzimidine, 1× complete protease inhibitor cocktail (Roche)). Cell suspensions were incubated with 1 mg/ml lysozyme and 5 mM β-mercaptoethanol on ice for 10 minutes, followed by sonication (3×30 sec). All subsequent procedures were performed at 4° C. Lysates were centrifuged at 40,000×g for 40 minutes. Supernatants were diluted and loaded onto an SP Sepharose column (Pharmacia, 5 ml cartridge) in buffer A (50 mM K-HEPES, pH 6.8, 1 mM MgCl2, 1 mM EGTA, 10 μM Mg-ATP, 1 mM DTT) and eluted with a 0 to 750 mM KCl gradient in buffer A. Fractions containing KSP were pooled and incubated with Ni-NTA resin (Qiagen) for one hour. The resin was washed three times with buffer B (Lysis buffer minus PMSF and protease inhibitor cocktail), followed by three 15-minute incubations and washes with buffer B. Finally, the resin was incubated and washed for 15 minutes three times with buffer C (same as buffer B except for pH 6.0) and poured into a column. KSP was eluted with elution buffer (identical to buffer B except for 150 mM KCl and 250 mM imidazole). KSP-containing fractions were pooled, made 10% in sucrose, and stored at −80° C.\nMicrotubules are prepared from tubulin isolated from bovine brain. Purified tubulin (>97% MAP-free) at 1 mg/ml is polymerized at 37° C. in the presence of 10 μM paclitaxel, 1 mM DTT, 1 mM GTP in BRB80 buffer (80 mM K-PIPES, 1 mM EGTA, 1 mM MgCl2 at pH 6.8). The resulting microtubules are separated from non-polymerized tubulin by ultracentrifugation and removal of the supernatant. The pellet, containing the microtubules, is gently resuspended in 10 μM paclitaxel, 1 mM DTT, 50 μg/ml ampicillin, and 5 μg/ml chloramphenicol in BRB80.\nThe kinesin motor domain is incubated with microtubules, 1 mM ATP (1:1 MgCl2: Na-ATP), and compound at 23° C. in buffer containing 80 mM K-HEPES (pH 7.0), 1 mM EGTA, 1 mM DTT, 1 mM MgCl2, and 50 mM KCl. The reaction is terminated by a 2-10 fold dilution with a final buffer composition of 80 mM HEPES and 50 mM EDTA (or, alternately, with a 1:1 addition of reaction volume to stop buffer (1.8M KCl and 50 mM EDTA)). Free phosphate from the ATP hydrolysis reaction is measured via a quinaldine red/ammonium molybdate assay by adding a 1.5 times volume of quench C (e.g., to a mixture of 40 μl reaction volume+40 μl stop buffer is then added 120 μl quench C). Quench A contains 0.1 mg/ml quinaldine red and 0.14% polyvinyl alcohol; quench B contains 12.3 mM ammonium molybdate tetrahydrate in 1.15 M sulfuric acid. Quench C is a 2:1 ratio of quench A:quench B The reaction is incubated for 5-10 minutes at 23° C., and the absorbance of the phospho-molybdate complex is measured at 540 nm."}
{"compound": "O=C1OCC2C(c3cc(F)ccc3F)=CC(c3ccccc3)N12", "note": "(racemic) [Compound 1-9a, (±)-(5S,7aR and 5R,7aS)-7-(2,5-Difluorophenyl)-5-phenyl-2,7a-dihydro-1H-pyrrole[1,2-c][1,3]oxazol-3-one]", "values": [{"measurement": "IC50", "result": "≤ 50", "unit": "µM"}]}
{"compound": "O=C1NCC2C(c3cc(F)ccc3F)=CC(c3ccccc3)N12", "note": "(racemic) [Compound 2-4a, (±)-7-(2,5-Difluorophenyl)-5-phenyl-1,2,5,7a-tetrahydro-3H-pyrrolo[1,2-c]imidazol-3-one]", "values": [{"measurement": "IC50", "result": "≤ 50", "unit": "µM"}]}
{"compound": "CN1C[C@H]2C(c3cc(F)ccc3F)=C[C@@H](c3ccccc3)N2C1=O", "note": "(racemic) [Compound 2A-1a, (±)-(5S,7aR)-7-(2,5-Difluorophenyl)-2-methyl-5-phenyl-1,2,5,7a-tetrahydro-3H-pyrrolo[1,2-c]imidazol-3-one]", "values": [{"measurement": "IC50", "result": "≤ 50", "unit": "µM"}]}
{"compound": "CCN1C[C@H]2C(c3cc(F)ccc3F)=C[C@@H](c3ccccc3)N2C1=O", "note": "(racemic) [Compound 2A-1b, (±)-(5S,7aR)-7-(2,5-Difluorophenyl)-2-ethyl-5-phenyl-1,2,5,7a-tetrahydro-3H-pyrrolo[1,2-c]imidazol-3-one]", "values": [{"measurement": "IC50", "result": "≤ 50", "unit": "µM"}]}
{"compound": "CN(C)CCN1C[C@H]2C(c3cc(F)ccc3F)=C[C@@H](c3ccccc3)N2C1=O", "note": "(racemic) [Compound 2A-1c, (±)-(5S,7aR)-7-(2,5-Difluorophenyl)-2-[2-(dimethylamino)ethyl]-5-phenyl-1,2,5,7a-tetrahydro-3H-pyrrolo[1,2-c]imidazol-3-one]", "values": [{"measurement": "IC50", "result": "≤ 50", "unit": "µM"}]}
{"compound": "CCN(CC)CCN1C[C@H]2C(c3cc(F)ccc3F)=C[C@@H](c3ccccc3)N2C1=O", "note": "(racemic) [Compound 2A-1d, (±)-(5S,7aR)-7-(2,5-Difluorophenyl)-2-[2-(diethylamino)ethyl]-5-phenyl-1,2,5,7a-tetrahydro-3H-pyrrolo[1,2-c]imidazol-3-one]", "values": [{"measurement": "IC50", "result": "≤ 50", "unit": "µM"}]}
{"compound": "O=C1CNC[C@H]2C(c3cc(F)ccc3F)=C[C@@H](c3ccccc3)N12", "note": "(racemic) [Compound 3-2a, (±)-(2S,5R and 2R,5S)-7-(2,5-Difluorophenyl)-5-phenyl-1,2,5,7a-tetrahydro-3H-pyrrolo[1,2-a]pyrazin-4(1H)-one]", "values": [{"measurement": "IC50", "result": "≤ 50", "unit": "µM"}]}
{"compound": "O=C1CNCC2C(c3cc(F)ccc3F)=CC(c3ccccc3)N12", "note": "(racemic) [Compound 3-2b, (±)-(2S,5S and 2R,5R)-7-(2,5-Difluorophenyl)-5-phenyl-1,2,5,7a-tetrahydro-3H-pyrrolo[1,2-a]pyrazin-4(1H)-one]", "values": [{"measurement": "IC50", "result": "≤ 50", "unit": "µM"}]}
{"compound": "CN1CC(=O)N2[C@@H](C1)C(c1cc(F)ccc1F)=C[C@H]2c1ccccc1", "note": "(racemic) [Compound 4-1, (±)-(6S,8aR and 6R,8aS)-8-(2,5-Difluorophenyl)-2-methyl-6-phenyl-2,3,6,8a-tetrahydropyrrolo[1,2-a]pyrazin-4(1H)-one]", "values": [{"measurement": "IC50", "result": "≤ 50", "unit": "µM"}]}
{"compound": "O=C1CN2[C@@H](CN1)C(c1cc(F)ccc1F)=C[C@H]2c1ccccc1", "note": "(racemic) [Compound 5-1, (±)-(6S,8aR and 6R,8aS)-8-(2,5-Difluorophenyl)-6-phenyl-1,2,6,8a-tetrahydropyrrolo[1,2-a]pyrazin-3(4H)-one]", "values": [{"measurement": "IC50", "result": "≤ 50", "unit": "µM"}]}
